In general, ED50 refers to the midpoint of the dose-response relation. The term IC50 denotes the concentration at which inhibition is half-maximal.

The values that follow come from patent US6342504B1, “Aromatic heterocyclic derivatives as enzyme inhibitors” (priority 1994, dated 2002).

In test [1] the test system is clot formation on silk thread in A-V shunt. Put plainly: Multiple extracorporeal (A-V) shunt model in rats utilizing oral dosing. It counts as in vivo. The note with it: rat, read-out: ED50 value (dose that reduced the clot size by 50%). Here is the method:
The compounds of Example 10 and 143 were evaluated in a multichamber A-V shunt model in rats. The A-V shunt model is one of the most common and generally used systems to evaluate antithrombotic compounds: Smith, J. R. and White, A. M. Br. J. Pharmacol., 77: 29-38 (1982). In this model a localized clot made up of primarily fibrin with some platelet and macrophage involvement (Shand, R. A. and Smith, J. R. and Wallis, R. B. Thromb. Res., 36: 223-232 (1984)), is formed on an artificial thrombogenic surface (typically a segment of silk or cotton thread) contained in a sialstic chamber which is part of an exteriorized shunt between the carotid artery and jugular vein. The procedure described in this Example is a modified A-V shunt model that allows for oral dosing of test agents and subsequent evaluation of efficacy over a two to three hour window in time.
Briefly, male Harlan Sprague Dawley rats (420-450 g) were acclimated at least 72 hours prior to use. The animals were fasted for 12 hours prior to surgery with free access to water. Unanesthetized animals were grouped into three or four dosage groups (six or seven animals per group) and administered test agents orally via gavage needle, at doses of 1.0, 3.0, 10 and 50 mg/kg for the compound of Example 10, and 3.0, 10 and 30 mg/kg for the Compound of Example 143. Immediately after oral dosing, animals were anesthetized with sodium pentobarbital (Nembutal) given intraperitoneally at a dose of 50 mg/kg body weight, and placed on a isothermal pad to maintain body temperature. The level of anesthesia was monitored every 15 minutes by neuro-response to a tail pinch, respiration and core temperature. The desired depth of surgical anesthesia was maintained by administering subsequent doses (5 mg/kg) intravenously. The left femoral artery was catheterized using standard procedures for blood pressure monitoring and blood sampling, with polyethylene tubing (PE50). The left femoral vein was catheterized with PE50 tubing for delivery of anethestic.
The exteriorized shunts were assembled by connecting two pieces of saline filled 12.5 cm PE90 tubing with a 6 cm piece of PE160 tubing containing a 6 cm piece of silk suture size 3 and clamped with hemostats. A small 0.5 cm portion of the silk thread protrudes from the junction of the chamber with the shunt. The left jugular vein and right carotid artery were catheterized with the ends of the PE90 shunt. The shunt was unclamped and blood allowed to flow from the carotid artery, through the chamber, and exit the shunt via the jugular vein. After 15 minutes, both sides of the chamber were clamped and the suture containing the clot removed following detachment of the arterial end of the chamber. The clot was immediately weighed and recorded. This procedure takes place at predetermined intervals (60, 90, 120, and 150 minutes after oral dosing) to allow assessment of efficacy over a large window in time. Four shunts were placed with flow initiated at 45, 75, 105, and 135 minutes after oral compound administration. Clot weight from the four shunts was the primary endpoint of the protocol. Blood pressure, heart rate core temperature and respiration were monitored continuously. Following termination of the experiment the animals were euthanized with a 120 mg/kg dose of Nembutal. One experiment was performed per animal.
ED50 values were calculated at 60, 90, 120, and 150 minutes after oral dosing of test compound. ED50 is that dose that reduced the clot size by 50%. […]

Test [2] has as its target T1, human alpha thrombin (Homo sapiens, UniProt P00734).
T1 construct: Purified human alpha-thrombin; purchased Enzyme Research Laboratories, Inc
Briefly: Thrombin (fIIa) IC50 assay, chromogenic substrate Pefachrome t-PA. It counts as biochemical. How it is done: (§1) The ability of compounds of the present invention to act as a selective inhibitor of thrombin catalytic activity was assessed by determining the concentration of compound which inhibited the activity of this enzyme by 50%, (IC50), and comparing this value to that determined for all or some of the following related serine proteases: recombinant tissue plasminogen activator (rt-PA), plasmin, activated protein C, chymotrypsin, factor Xa and trypsin.
(§2) The buffer used for all assays was HBSA (10 mM HEPES, pH 7.5, 150 mM sodium chloride, 0.1% bovine serum albumin).
(§3) The assay for IC50 determinations was conducted by combining in appropriate wells of a Corning microtiter plate, 50 microliters of HBSA, 50 microliters of the test compound at a specified concentration (covering a broad concentration range) diluted in HBSA (or HBSA alone for VO (uninhibited velocity) measurement), and 50 microliters of the enzyme diluted in HBSA. Following a 30 minute incubation at ambient temperature, 50 microliters of the substrate at the concentrations specified below were added to the wells, yielding a final total volume of 200 microliters. The initial velocity of chromogenic substrate hydrolysis was measured by the change in absorbance at 405 nm using a Thermo Max® Kinetic Microplate Reader over a 5 minute period in which less than 5% of the added substrate was utilized. The concentration of added inhibitor which caused a 50% decrease in the initial rate of hydrolysis was defined as the IC50 value.
Enzyme activity was determined using the chromogenic substrate, Pefachrome t-PA (CH3SO2-D-hexahydrotyrosine-glycyl-L-Arginine-p-nitroaniline, obtained from Pentapharm Ltd.). The substrate was reconstituted in deionized water prior to use. Purified human a-thrombin was obtained from Enzyme Research Laboratories, Inc. The buffer used for all assays was HBSA (10 mM HEPES, pH 7.5, 150 mM sodium chloride, 0.1% bovine serum albumin).
IC50 determinations were conducted where HBSA ([…]), a-thrombin (50 μl) and inhibitor (50 μl) (covering a broad concentration range), were combined in appropriate wells and incubated for 30 minutes at room temperature prior to the addition of substrate Pefachrome-t-PA (50 μl). The initial velocity of Pefachrome t-PA hydrolysis was measured by the change in absorbance at 405 nm using a Thermo Max® Kinetic Microplate Reader over a 5 minute period in which less than 5% of the added substrate was utilized. The concentration of added inhibitor which caused a 50% decrease in the initial rate of hydrolysis was defined as the IC50 value.

The target in test [3] is T2, human aPC (Homo sapiens, UniProt P04070).
T2 construct: purchased Hematologic Technologies, Inc
T2 sequence (P04070 43-197): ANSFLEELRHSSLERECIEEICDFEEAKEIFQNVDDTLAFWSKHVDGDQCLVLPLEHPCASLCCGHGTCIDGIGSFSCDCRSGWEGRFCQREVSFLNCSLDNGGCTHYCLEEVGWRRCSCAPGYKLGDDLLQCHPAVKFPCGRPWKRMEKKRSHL
T2 sequence (P04070 212-461): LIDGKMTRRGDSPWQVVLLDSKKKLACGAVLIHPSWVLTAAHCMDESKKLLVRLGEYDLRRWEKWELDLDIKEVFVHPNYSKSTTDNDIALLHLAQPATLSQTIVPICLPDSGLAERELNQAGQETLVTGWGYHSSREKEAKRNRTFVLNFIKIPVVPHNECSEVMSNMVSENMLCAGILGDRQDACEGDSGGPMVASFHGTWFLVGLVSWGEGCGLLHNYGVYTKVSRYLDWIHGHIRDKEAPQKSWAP
Briefly: biochemical. The settings on record: 30 minute incubation. Here is the method: as §2
Following a 30 minute incubation at ambient temperature, 50 microliters of the substrate at the concentrations specified below were added to the wells, yielding a final total volume of 200 microliters.
Activated Protein C (aPC) Assay
aPC catalytic activity was determined using the chromogenic substrate, Pefachrome PC (delta-carbobenzloxy-D-lysine-L-prolyl-L-arginine-p-nitroaniline dihydrochloride), obtained from Pentapharm Ltd.). […] Purified human aPC was obtained from Hematologic Technologies, Inc. The enzyme was diluted into HBSA prior to assay in which the final concentration was 1.0 nM.

Test [4] has as its target human plasmin (Homo sapiens, UniProt P00747). Put plainly: biochemical. Here is the method:
as §1, §2, §3
Plasmin catalytic activity was determined using the chromogenic substrate, S-2366 [L-pyroglutomyl-L-prolyl-L-arginine-p-nitroaniline hydrochloride], which was obtained from Pharmacia-Upjohn. The substrate was made up in deionized water followed by dilution in HBSA prior to the assay in which the final concentration was 300 micromolar (about 2.5-times Km). Purified human plasmin was obtained from Enzyme Research Laboratories, Inc. The enzyme was diluted into HBSA prior to assay in which the final concentration was […].

Test [5] has as its target T3, Human rt-PA (Activase) (Homo sapiens, UniProt P00750).
T3 construct: purchased Genentech Inc
Briefly: biochemical. The note with it: 30 minute incubation. How it is done: as §1, §2, §3
Recombinant Tissue Plasminogen Activator (rt-PA) Assay
rt-PA catalytic activity was determined using the substrate, Pefachrome t-PA (CH3SO2-D-hexahydrotyrosine-glycyl-L-arginine-p-nitroaniline, obtained from Pentapharm Ltd.). The substrate was made up in deionized water followed by dilution in HBSA prior to the assay in which the final concentration was 500 micromolar (about 3-times Km). Human rt-PA (Activase®) was obtained from Genentech Inc. The enzyme was reconstituted in deionized water and diluted into HBSA prior to the assay in which the final concentration was 1.0 nM.

The mark [6] stands for this setting: 30 minute incubation, read-out: Plasmin IC50 (Table 3B).
Setting [7] is: 1.0 nM enzyme, read-out: IC50 aPC (Table 2).
Setting [8] is: 30 minute incubation, read-out: IC50 Plasmin (Table 2).
The mark [9] stands for this setting: 1.0 nM enzyme, read-out: IC50 rt-PA (Table 2).

Structures can show the parent of a compound that is named as a salt. Where two headings read alike, the source gives them in different places.

Sequence of human plasmin (P00747 97-580): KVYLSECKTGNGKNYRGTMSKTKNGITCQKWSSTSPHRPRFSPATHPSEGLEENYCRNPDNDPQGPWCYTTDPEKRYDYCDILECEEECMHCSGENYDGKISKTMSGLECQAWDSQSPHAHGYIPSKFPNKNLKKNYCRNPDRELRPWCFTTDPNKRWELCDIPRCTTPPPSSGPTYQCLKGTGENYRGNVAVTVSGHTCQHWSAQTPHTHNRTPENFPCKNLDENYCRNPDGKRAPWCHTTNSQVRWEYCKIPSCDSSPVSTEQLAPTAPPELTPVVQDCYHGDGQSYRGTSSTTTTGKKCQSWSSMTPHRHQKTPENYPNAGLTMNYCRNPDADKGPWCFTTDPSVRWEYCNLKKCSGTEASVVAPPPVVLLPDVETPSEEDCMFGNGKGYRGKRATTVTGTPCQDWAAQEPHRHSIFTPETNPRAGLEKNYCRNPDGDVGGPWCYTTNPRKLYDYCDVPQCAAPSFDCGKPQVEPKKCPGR
Sequence of human plasmin (P00747 581-810): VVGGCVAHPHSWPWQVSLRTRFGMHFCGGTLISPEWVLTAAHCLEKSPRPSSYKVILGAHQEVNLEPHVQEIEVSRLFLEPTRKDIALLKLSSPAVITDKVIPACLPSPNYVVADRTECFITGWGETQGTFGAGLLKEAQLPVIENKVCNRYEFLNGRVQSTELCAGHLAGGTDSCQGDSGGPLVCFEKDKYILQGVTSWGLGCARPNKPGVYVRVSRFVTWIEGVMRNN
T3 sequence (P00750 36-562): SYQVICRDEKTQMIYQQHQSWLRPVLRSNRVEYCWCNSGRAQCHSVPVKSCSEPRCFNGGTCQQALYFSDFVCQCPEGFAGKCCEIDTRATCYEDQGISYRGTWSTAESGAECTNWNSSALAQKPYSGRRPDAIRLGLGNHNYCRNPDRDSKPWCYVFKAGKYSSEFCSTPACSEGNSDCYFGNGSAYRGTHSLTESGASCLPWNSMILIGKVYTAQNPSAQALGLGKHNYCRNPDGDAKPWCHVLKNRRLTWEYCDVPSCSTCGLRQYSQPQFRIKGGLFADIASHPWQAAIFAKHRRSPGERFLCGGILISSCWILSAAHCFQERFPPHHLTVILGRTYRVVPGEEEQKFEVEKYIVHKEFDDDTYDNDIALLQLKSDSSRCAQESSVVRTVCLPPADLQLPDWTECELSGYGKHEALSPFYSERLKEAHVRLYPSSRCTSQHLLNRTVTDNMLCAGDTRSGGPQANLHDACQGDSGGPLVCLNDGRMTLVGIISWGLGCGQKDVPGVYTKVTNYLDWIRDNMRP

For `N=C(N)NCCCC(C=O)NC(=O)Cn1cccc(NS(=O)(=O)Cc2ccccc2F)c1=O` (stereo not drawn) [Compound 121J], the 50% effective dose (ED50) in test [1] (1 h, 60 min after oral dose) came out at 22 mg/kg; in test [1] (1.5 h, 90 min after oral dose) it was 20 mg/kg; in test [1] (2 h, 120 min after oral dose), 24 mg/kg; in test [1] (150 min after oral dose), 28 mg/kg.

For the compound `N=C(N)NCCC[C@@H](C=O)NC(=O)Cn1cccc(NS(=O)(=O)Cc2cc(F)ccc2F)c1=O` [Compound 121P, [3-(2,5-difluorobenzyl)sulfonylamino-2-oxo-1,2-dihydropyridyl]acetyl-L-argininal], the IC50 was 1.73 nM in test [2], over 2500 nM in test [4] (setting [6]) and over 2500 nM in test [5] (read-out: rtPA IC50 (Table 3B)). For the same compound, the “aPC IC50 (Table 3B)” value in test [3] is “inactive”.

Take `Cc1ccc(F)cc1S(=O)(=O)Nc1ccc(C)n(CC(=O)N[C@H](C=O)CCCNC(=N)N)c1=O` [Compound 126B, [3-(5-fluoro-2-methylphenyl)sulfonylamino-6-methyl-2-oxo-1,2-dihydro-pyridyl]acetyl-L-argininal]: the IC50 is 0.882 nM in test [2] and over 2500 nM in test [4] (setting [6]). In addition, in test [3], the “aPC IC50 (Table 3B)” value is “inactive”. Moreover, the “rtPA IC50 (Table 3B)” value in test [5] is “inactive”.

Consider `COc1ccc(OC)c(S(=O)(=O)Nc2ccc(C)n(CC(=O)N[C@H](C=O)CCCNC(=N)N)c2=O)c1` [Compound 126C, 3-[(2,5-dimethoxyphenyl)sulfonylamino-6-methyl-2-oxo-1,2-dihydro-pyridyl]acetyl-L-argininal], for which the IC50 in test [2] was 0.519 nM; in test [4] (setting [6]), over 2500 nM. In addition, the “aPC IC50 (Table 3B)” value in test [3] was “inactive”. In test [5], the “rtPA IC50 (Table 3B)” value was “inactive”.

Take `CCc1ccc(NS(=O)(=O)c2cc(F)ccc2C)c(=O)n1CC(=O)N[C@H](C=O)CCCNC(=N)N` [Compound 126F, [3-(5-fluoro-2-methylphenyl)sulfonylamino-6-ethyl-2-oxo-1,2-dihydro-pyridyl]acetyl-L-argininaln]: the IC50 is 0.71 nM in test [2] and about 2500 nM in test [4] (setting [6]). In addition, the “aPC IC50 (Table 3B)” value in test [3] is “inactive”. Also, the “rtPA IC50 (Table 3B)” value in test [5] was “inactive”.

Consider `CS(=O)(=O)Nc1c(CCc2ccccc2)ccn(CC(=O)N[C@H](C=O)CCCNC(=N)N)c1=O` [Compound 134B, [3-methylsulfonylamino-4-(2-phenylethyl)-2-oxo-1,2-dihydropyridyl]acetyl-L-argininal], for which the IC50 is 7.95 nM in test [2], over 2500 nM in test [4] (read-out: Plasmin IC50 (Table 3B)) and over 2500 nM in test [5] (read-out: rtPA IC50 (Table 3B)). Also, in test [3], the “aPC IC50 (Table 3B)” value was “inactive”.

Consider `COc1cccc(S(=O)(=O)Nc2ccc(C)n(CC(=O)N[C@H](C=O)CCCNC(=N)N)c2=O)c1` [Compound 153A, [3-(3-methoxylphenyl)sulfonylamino-6-methyl-2-oxo-1,2-dihydro-pyridyl]acetyl-L-argininal], for which the IC50 in test [2] (30 minute incubation, read-out: Thrombin IC50 (Table 3C)) is 0.456 nM; in test [3] (read-out: aPC IC50 (Table 3C)) it was over 2500 nM; in test [4] (30 minute incubation, read-out: Plasmin IC50 (Table 3C)) it was over 2500 nM; in test [5] (read-out: rtPA IC50 (Table 3C)), over 2500 nM.

On to `N=C(N)NCCC[C@@H](C=O)NC(=O)Cn1cccc(NS(=O)(=O)c2ccccc2)c1=O` [Compound B, (3-phenylsulfonylamino-2-oxo-1,2-dihydro-pyridyl)acetyl-L-argininal], for which the IC50 in test [2] is 0.98 nM; in test [3] (setting [7]) it was over 2500 nM; in test [4] (setting [8]) it was over 2500 nM; in test [5] (setting [9]) it was over 2500 nM.

As to `Cc1ncc(NS(=O)(=O)Cc2ccccc2)c(=O)n1CC(=O)N[C@H](C=O)CCCNC(=N)N` [Compound D, (5-benzylsulfonylamino-2-methyl-6-oxo-1,6-dihydro-1-pyrimidinyl)acetyl-L-argininal, trifluoroacetate salt], the IC50 is 2.32 nM in test [2], over 2500 nM in test [3] (setting [7]), over 2500 nM in test [4] (setting [8]) and over 2500 nM in test [5] (setting [9]).
